Measured values: ChEMBL document CHEMBL1212927, “Synthesis and structure-activity relationships of novel 8a-aza-8a-homoerythromycin A ketolides” (2010)
≈ marks a conversion by molar mass, not a printed value.

Tests used:
Staphylococcus aureus [1] = assay: Antibacterial activity against efflux-resistant Staphylococcus aureus B0331 by agar microdilution method; format: functional
Staphylococcus aureus [2] = assay: Antibacterial activity against inducible macrolide-lincosamide-streptogramin B-resistant Staphylococcus aureus B0538 by agar microdilution method; format: functional
Streptococcus pneumoniae [3] = assay: Antibacterial activity against efflux-resistant Streptococcus pneumoniae B0326 by agar microdilution method; format: functional
Haemophilus influenzae = assay: Antibacterial activity against Haemophilus influenzae B0529 by agar microdilution method; format: functional
Streptococcus pneumoniae [4] = assay: Antibacterial activity against erythromycin-susceptible Streptococcus pneumoniae B0541 by agar microdilution method
Streptococcus pyogenes [5] = assay: Antibacterial activity against constitutive macrolide-lincosamide-streptogramin B-resistant Streptococcus pyogenes B0544 by agar microdilution method; format: functional
Streptococcus pyogenes [6] = assay: Antibacterial activity against inducible macrolide-lincosamide-streptogramin B-resistant Streptococcus pyogenes B0543 by agar microdilution method; format: functional
Staphylococcus aureus [7] = assay: Antibacterial activity against constitutive macrolide-lincosamide-streptogramin B-resistant Staphylococcus aureus B0330 by agar microdilution method; format: functional
Staphylococcus aureus [8] = assay: Antibacterial activity against erythromycin A-susceptible Staphylococcus aureus B0329 by agar microdilution method
Streptococcus pyogenes [9] = assay: Antibacterial activity against erythromycin A-susceptible Streptococcus pyogenes B0542 by agar microdilution method
Streptococcus pneumoniae [10] = assay: Antibacterial activity against constitutive macrolide-lincosamide-streptogramin B-resistant Streptococcus pneumoniae B0627 by agar microdilution method; format: functional
Moraxella catarrhalis = assay: Antibacterial activity against Moraxella catarrhalis B0324 by agar microdilution method; format: functional
Streptococcus pyogenes [11] = assay: Antibacterial activity against efflux-resistant Streptococcus pyogenes B0545 by agar microdilution method; format: functional

| Compound | MIC (Staphylococcus aureus [1]) [µg/mL] | MIC (Staphylococcus aureus [2]) [µg/mL] | MIC (Streptococcus pneumoniae [3]) [µg/mL] | MIC (Haemophilus influenzae) [µg/mL] | MIC (Streptococcus pneumoniae [4]) [µg/mL] | MIC (Streptococcus pyogenes [5]) [µg/mL] | MIC (Streptococcus pyogenes [6]) [µg/mL] | MIC (Staphylococcus aureus [7]) [µg/mL] | MIC (Staphylococcus aureus [8]) [µg/mL] | MIC (Streptococcus pyogenes [9]) [µg/mL] | MIC (Streptococcus pneumoniae [10]) [µg/mL] | MIC (Moraxella catarrhalis) [µg/mL] | MIC (Streptococcus pyogenes [11]) [µg/mL] |
| --- | --- | --- | --- | --- | --- | --- | --- | --- | --- | --- | --- | --- | --- |
| CC[C@H]1OC(=O)[C@H](C)C(=O)[C@H](C)[C@@H](O[C@@H]2O[C@H](C)C[C@H](N(C)C)[C@H]2O)[C@](C)(OCC(O)CNCc2cnc3ccccc3c2)C[C@@H](C)NC(=O)[C@H](C)[C@@H](O)[C@]1(C)O (mixture of isomers) | 0.5 | 2 | 4 | 4 | ≤ 0.125 | 8 | 4 | > 64 | 1 | ≤ 0.125 | 8 | 2 | 8 |
| CC[C@H]1OC(=O)[C@H](C)[C@@H](O[C@H]2C[C@@](C)(OC)[C@@H](O)[C@H](C)O2)[C@H](C)[C@@H](O[C@@H]2O[C@H](C)C[C@H](N(C)C)[C@H]2O)[C@](C)(O)C[C@@H](C)CN(C)[C@H](C)[C@@H](O)[C@]1(C)O [AZITHROMYCIN] | > 64 | > 64 | 4 (≈ 5.34 µM) | 1 (≈ 1.34 µM) | ≤ 0.125 | > 64 | 8 (≈ 10.7 µM) | > 64 | 1 (≈ 1.34 µM) | ≤ 0.125 | > 64 | 0.25 (≈ 0.334 µM) | 1 (≈ 1.34 µM) |
| CC[C@H]1OC(=O)[C@H](C)C(=O)[C@H](C)[C@@H](O[C@@H]2O[C@H](C)C[C@H](N(C)C)[C@H]2O)[C@](C)(OCC(O)CNCCc2ccccn2)C[C@@H](C)NC(=O)[C@H](C)[C@@H](O)[C@]1(C)O (mixture of isomers) | 8 | 8 | 16 | 32 | 1 | 32 | 4 | > 64 | 8 | 0.25 | 8 | 4 | 4 |
| CC[C@H]1OC(=O)[C@H](C)C(=O)[C@H](C)[C@@H](O[C@@H]2O[C@H](C)C[C@H](N(C)C)[C@H]2O)[C@](C)(OCC(O)CNCCCCc2ccccn2)C[C@@H](C)NC(=O)[C@H](C)[C@@H](O)[C@]1(C)O (stereo partly drawn) | 2 (≈ 2.52 µM) | 4 (≈ 5.03 µM) | 4 (≈ 5.03 µM) | 4 (≈ 5.03 µM) | ≤ 0.125 | 32 (≈ 40.3 µM) | 0.5 (≈ 0.629 µM) | > 64 | 1 (≈ 1.26 µM) | 0.25 (≈ 0.314 µM) | 2 (≈ 2.52 µM) | ≤ 0.125 | 1 (≈ 1.26 µM) |
| CC[C@H]1OC(=O)[C@H](C)C(=O)[C@H](C)[C@@H](O[C@@H]2O[C@H](C)C[C@H](N(C)C)[C@H]2O)[C@](C)(OCC(O)CNCCCCc2cccnc2)C[C@@H](C)NC(=O)[C@H](C)[C@@H](O)[C@]1(C)O (stereo partly drawn) | 1 (≈ 1.26 µM) | 1 (≈ 1.26 µM) | 1 (≈ 1.26 µM) | 2 (≈ 2.52 µM) | ≤ 0.125 | 4 (≈ 5.03 µM) | ≤ 0.125 | > 64 | 0.5 (≈ 0.629 µM) | ≤ 0.125 | 0.5 (≈ 0.629 µM) | ≤ 0.125 | 0.5 (≈ 0.629 µM) |
| CC[C@H]1OC(=O)[C@H](C)C(=O)[C@H](C)[C@@H](O[C@@H]2O[C@H](C)C[C@H](N(C)C)[C@H]2O)[C@](C)(OC)C[C@@H](C)C(=O)[C@H](C)[C@H]2N(CCCCn3cnc(-c4cccnc4)c3)C(=O)O[C@]12C [TELITHROMYCIN] | 0.25 (≈ 0.308 µM) | 0.5 (≈ 0.616 µM) | 0.5 (≈ 0.616 µM) | 1 (≈ 1.23 µM) | ≤ 0.06 | 4 (≈ 4.93 µM) | ≤ 0.06 | > 64 | ≤ 0.125 | ≤ 0.06 | ≤ 0.125 | ≤ 0.125 | 0.25 (≈ 0.308 µM) |
| CC[C@H]1OC(=O)[C@H](C)C(=O)[C@H](C)[C@@H](O[C@@H]2O[C@H](C)C[C@H](N(C)C)[C@H]2O)[C@](C)(OCC(O)CN2CCN(c3ccc4ncccc4c3)CC2)C[C@@H](C)NC(=O)[C@H](C)[C@@H](O)[C@]1(C)O (stereo partly drawn) | 2 (≈ 2.33 µM) | 0.25 (≈ 0.291 µM) | 0.5 (≈ 0.583 µM) | 2 (≈ 2.33 µM) | ≤ 0.125 | 4 (≈ 4.66 µM) | 0.25 (≈ 0.291 µM) | > 64 | 0.25 (≈ 0.291 µM) | ≤ 0.125 | 1 (≈ 1.17 µM) | 1 (≈ 1.17 µM) | 2 (≈ 2.33 µM) |
| CC[C@H]1OC(=O)[C@H](C)C(=O)[C@H](C)[C@@H](O[C@@H]2O[C@H](C)C[C@H](N(C)C)[C@H]2O)[C@](C)(OCC(O)CNCCCc2cccnc2)C[C@@H](C)NC(=O)[C@H](C)[C@@H](O)[C@]1(C)O (stereo partly drawn) | 4 (≈ 5.12 µM) | 4 (≈ 5.12 µM) | 4 (≈ 5.12 µM) | 16 (≈ 20.5 µM) | 0.25 (≈ 0.32 µM) | 16 (≈ 20.5 µM) | 0.5 (≈ 0.64 µM) | > 64 | 2 (≈ 2.56 µM) | ≤ 0.125 | 1 (≈ 1.28 µM) | 0.5 (≈ 0.64 µM) | 1 (≈ 1.28 µM) |
| CC[C@H]1OC(=O)[C@H](C)C(=O)[C@H](C)[C@@H](O[C@@H]2O[C@H](C)C[C@H](N(C)C)[C@H]2O)[C@](C)(OC[C@@H](O)CNCCNc2ccc3ncccc3c2)C[C@@H](C)NC(=O)[C@H](C)[C@@H](O)[C@]1(C)O | 0.25 (≈ 0.3 µM) | 0.25 (≈ 0.3 µM) | ≤ 0.125 | 0.25 (≈ 0.3 µM) | ≤ 0.125 | 1 (≈ 1.2 µM) | ≤ 0.125 | > 64 | ≤ 0.125 | ≤ 0.125 | ≤ 0.125 | ≤ 0.125 | 0.5 (≈ 0.601 µM) |
| CC[C@H]1OC(=O)[C@H](C)C(=O)[C@H](C)[C@@H](O[C@@H]2O[C@H](C)C[C@H](N(C)C)[C@H]2O)[C@](C)(OCC(O)CN2CCN(c3ccc(C(C)=O)cc3)CC2)C[C@@H](C)NC(=O)[C@H](C)[C@@H](O)[C@]1(C)O (mixture of isomers) | 2 | 4 | 2 | 16 | 1 | 32 | 8 | > 64 | 2 | 0.5 | 32 | 4 | 4 |
| CC[C@H]1OC(=O)[C@H](C)C(=O)[C@H](C)[C@@H](O[C@@H]2O[C@H](C)C[C@H](N(C)C)[C@H]2O)[C@](C)(OCC(O)CNCCNc2cnc3ccccc3c2)C[C@@H](C)NC(=O)[C@H](C)[C@@H](O)[C@]1(C)O (mixture of isomers) | 0.25 | 1 | 0.25 | 1 | ≤ 0.125 | 4 | 1 | > 64 | 1 | ≤ 0.125 | 1 | ≤ 0.125 | 0.5 |
| CC[C@H]1OC(=O)[C@H](C)C(=O)[C@H](C)[C@@H](O[C@@H]2O[C@H](C)C[C@H](N(C)C)[C@H]2O)[C@](C)(OCC(O)CN2CCN(c3ccc([N+](=O)[O-])cc3)CC2)C[C@@H](C)NC(=O)[C@H](C)[C@@H](O)[C@]1(C)O (stereo partly drawn) | 2 (≈ 2.35 µM) | 2 (≈ 2.35 µM) | 2 (≈ 2.35 µM) | 8 (≈ 9.39 µM) | ≤ 0.125 | 8 (≈ 9.39 µM) | 2 (≈ 2.35 µM) | > 64 | 1 (≈ 1.17 µM) | 0.25 (≈ 0.293 µM) | 4 (≈ 4.69 µM) | 0.5 (≈ 0.587 µM) | 1 (≈ 1.17 µM) |
| CC[C@H]1OC(=O)[C@H](C)C(=O)[C@H](C)[C@@H](O[C@@H]2O[C@H](C)C[C@H](N(C)C)[C@H]2O)[C@](C)(OCC(O)CNCc2ccc3ncccc3c2)C[C@@H](C)NC(=O)[C@H](C)[C@@H](O)[C@]1(C)O (stereo partly drawn) | 0.25 (≈ 0.311 µM) | 0.5 (≈ 0.623 µM) | 1 (≈ 1.25 µM) | 1 (≈ 1.25 µM) | ≤ 0.125 | 8 (≈ 9.96 µM) | 2 (≈ 2.49 µM) | > 64 | 0.5 (≈ 0.623 µM) | ≤ 0.125 | 4 (≈ 4.98 µM) | 1 (≈ 1.25 µM) | 2 (≈ 2.49 µM) |
| CC[C@H]1OC(=O)[C@H](C)C(=O)[C@H](C)[C@@H](O[C@@H]2O[C@H](C)C[C@H](N(C)C)[C@H]2O)[C@](C)(OCC(O)CNCCc2ccccc2)C[C@@H](C)NC(=O)[C@H](C)[C@@H](O)[C@]1(C)O (mixture of isomers) | 8 | 16 | 16 | 16 | 0.25 | 16 | 1 | > 64 | 4 | 0.5 | 8 | 0.5 | 1 |
| CC[C@H]1OC(=O)[C@H](C)C(=O)[C@H](C)[C@@H](O[C@@H]2O[C@H](C)C[C@H]([N+](C)(C)[O-])[C@H]2O)[C@](C)(OCC2CO2)C[C@@H](C)NC(=O)[C@H](C)[C@@H](O)[C@]1(C)O (stereo partly drawn) | > 64 | > 64 | > 64 | > 64 | > 64 | > 64 | > 64 | > 64 | > 64 | > 64 | > 64 | > 64 | > 64 |
| CC[C@H]1OC(=O)[C@H](C)C(=O)[C@H](C)[C@@H](O[C@@H]2O[C@H](C)C[C@H](N(C)C)[C@H]2O)[C@](C)(OCC(O)CNCCCc2ccccc2)C[C@@H](C)NC(=O)[C@H](C)[C@@H](O)[C@]1(C)O (stereo partly drawn) | 8 (≈ 10.3 µM) | 8 (≈ 10.3 µM) | 8 (≈ 10.3 µM) | 16 (≈ 20.5 µM) | 0.25 (≈ 0.321 µM) | 16 (≈ 20.5 µM) | 1 (≈ 1.28 µM) | > 64 | 4 (≈ 5.13 µM) | 0.25 (≈ 0.321 µM) | 8 (≈ 10.3 µM) | 1 (≈ 1.28 µM) | 1 (≈ 1.28 µM) |
